# Test results as given in PMC7215781 (International Journal of Molecular Sciences, 2020).
# Target: T1, purified Na,K-ATPase from lamb kidney (α1) (Ovis aries, UniProt P04074)
# T1 construct: gene ATP1A1; native enzyme purified from lamb kidney (gift of W. Ball); with Sodium/potassium-transporting ATPase subunit beta-1
# Assay: coupled pyruvate kinase/lactate dehydrogenase ATPase assay, NADH absorbance at […] nm, Hill fit
# Assay type: biochemical
# Settings: inhibition; 3 h incubation in K+-free solution; 5 mM ATP, 100 mM NaCl, 10 mM MgCl2; pH 7.3; 37 °C
compound,measurement,value
C[C@@H]1O[C@@H](O[C@H]2C[C@@H](O)[C@]3(CO)[C@H]4[C@H](O)C[C@]5(C)[C@@H](C6=CC(=O)OC6)CC[C@]5(O)[C@@H]4CC[C@]3(O)C2)[C@H](O)[C@H](O)[C@H]1O [ouabain],K0.5,157 ± 7 nM
